Data on 1 compound can be found in article PMC6934184, “Selective DNA-PKcs inhibition extends the therapeutic index of localized radiotherapy and chemotherapy” (The Journal of Clinical Investigation, 2019).

Each structure is given as a SMILES string.

The target in this test is T1, DDR2 N456S (Homo sapiens, UniProt Q16832, N456S).
T1 construct: purchased Thermo Fisher Scientific (Life Technologies) SelectScreen
The test is described as follows: SelectScreen LanthaScreen. Type of test: binding. The settings on record: read-out: % displacement. Summed up: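 SelectScreen broad panel; activity (Z'LYTE, Adapta) plus binding formats. ATP: Km app for CSF1R Z'LYTE; 10 for CAMK1 Adapta. Readout = % per kinase.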
A general note: In TR-FRET formats the signal depends on donor and acceptor labels being close together.

T1 sequence (Q16832 22-855 N456S): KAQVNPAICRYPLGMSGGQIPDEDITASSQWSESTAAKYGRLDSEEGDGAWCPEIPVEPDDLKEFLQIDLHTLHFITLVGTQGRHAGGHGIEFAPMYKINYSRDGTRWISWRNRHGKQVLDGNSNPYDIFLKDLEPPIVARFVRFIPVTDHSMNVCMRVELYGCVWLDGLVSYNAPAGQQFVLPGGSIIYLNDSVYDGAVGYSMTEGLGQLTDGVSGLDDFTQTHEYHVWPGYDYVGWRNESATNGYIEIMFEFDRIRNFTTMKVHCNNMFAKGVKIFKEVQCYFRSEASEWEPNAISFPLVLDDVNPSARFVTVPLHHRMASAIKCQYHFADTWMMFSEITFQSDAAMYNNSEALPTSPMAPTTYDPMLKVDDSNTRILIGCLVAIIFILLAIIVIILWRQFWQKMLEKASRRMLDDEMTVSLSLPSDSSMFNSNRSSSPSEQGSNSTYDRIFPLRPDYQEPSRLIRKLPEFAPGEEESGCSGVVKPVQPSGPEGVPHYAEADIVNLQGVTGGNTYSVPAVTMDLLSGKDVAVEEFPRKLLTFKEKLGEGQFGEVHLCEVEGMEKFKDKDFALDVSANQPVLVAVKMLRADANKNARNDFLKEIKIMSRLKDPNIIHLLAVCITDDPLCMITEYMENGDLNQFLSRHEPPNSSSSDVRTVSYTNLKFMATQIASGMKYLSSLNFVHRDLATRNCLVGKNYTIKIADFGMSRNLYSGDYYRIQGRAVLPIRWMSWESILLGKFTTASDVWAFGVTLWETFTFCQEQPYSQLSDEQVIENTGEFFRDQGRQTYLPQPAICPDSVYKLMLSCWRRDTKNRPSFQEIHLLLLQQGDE

On to `CN(C(=O)CN1CCOCC1)c1ccc2sc3c(-c4cccc5c(=O)cc(N6CC7CCC(C6)O7)oc45)cccc3c2c1` [NU5455], for which the inhibition at 1 µM was 0.5%.
